Reference: patent publication US8153441B2, “Method for analyzing structure and purity of serotonin transporter imaging agent [123 I] ADAM and precursor SnADAM” (Institute of Nuclear Energy Research Atomic Energy Council, priority 2008, dated 2012)

Experiments:
[1] = Solution stability experiment of SnADAM-MeOH solution (HPLC purity after storage at room temperature); type: physicochemical; details: for Purity of tested samples: room temperature
Procedure: 15.3 ppm, 153 ppm and 306 ppm SnADAM (test sample)-MeOH solutions were prepared and stored at room temperature for three days, and then continuously subjected to HPLC analysis. Meanwhile, a portion of fresh 10-320 ppm SnADAM-MeOH solution is prepared each day to serve as calibration standard sample. The SnADAM chromatographic peak retention time (tR), linear least square regression equation, correlation coefficient (r), purity of the test sample, SD, and RSD of the calibration sample were calculated. Referring to Table 5, the linear correlation coefficients of the fresh calibration standards prepared in three days were all greater than 0.9996. After the test sample was stored at room temperature for three days, the SnADAM retention time RSD=0.31%, and the mean purity RSD=0.05%.

[2] = Forced degradation experiment of SnADAM (HPLC); type: physicochemical
Procedure: Three portions of 0.50 mg SnADAM were dissolved in MeOH solvent, respectively added with 1 M HCl solution, 1 M NaOH solution, and 3% H2O2 solution, and then reacted at room temperature for 30 min. The first two portions of solutions were respectively neutralized with 1 M NaOH and 1 M HCl and then added with suitable amounts of MeOH to dissolve the precipitate, while the third portion of solution was directly diluted with a suitable amount of MeOH after the reaction and then subjected to HPLC analysis. Another portion of 0.50 mg SnADAM was heated in an oven at 80° C. for 30 min, dissolved in MeOH solvent, and then subjected to HPLC analysis. […] Therefore, SnADAM can be separated from the impurities (as shown in FIG. 2) and the degradation products (as shown in FIGS. 3A-3D) without interfering with the quantitative results.

CCC[CH2][Sn]([CH2]CCC)([CH2]CCC)[c]1ccc(Sc2ccccc2CN(C)C)c(N)c1 [SnADAM, 2-((2-((Dimethylamino)methyl)phenyl)thio)-5-(tri-n-butyltin)-phenylamine]
Purity of tested samples ([1]; SnADAM-MeOH solution 15.3 ppm, day 1): 98.17 ± 0.17 (0.18%, n = 3) | Purity of tested samples ([1]; SnADAM-MeOH solution 15.3 ppm, day 2): 98.12 ± 0.21 (0.21%, n = 3) | Purity of tested samples ([1]; SnADAM-MeOH solution 15.3 ppm, day 3): 97.96 ± 0.73 (0.74%, n = 3) | Purity of tested samples ([1]; SnADAM-MeOH solution 153.0 ppm, day 1): 97.12 ± 0.15 (0.15%, n = 3) | Purity of tested samples ([1]; SnADAM-MeOH solution 153.0 ppm, day 2): 97.00 ± 0.25 (0.26%, n = 3) | Purity of tested samples ([1]; SnADAM-MeOH solution 153.0 ppm, day 3): 97.12 ± 0.04 (0.04%, n = 3) | Purity of tested samples ([1]; SnADAM-MeOH solution 306.0 ppm, day 1): 96.77 ± 0.07 (0.07%, n = 3) | Purity of tested samples ([1]; SnADAM-MeOH solution 306.0 ppm, day 2): 96.73 ± 0.06 (0.06%, n = 3) | Purity of tested samples ([1]; SnADAM-MeOH solution 306.0 ppm, day 3): 96.70 ± 0.20 (0.20%, n = 3) | Stability of SnADAM-MeOH solution (change in purity) ([1]; stored at room temperature for three days): no significant change in purity | Forced degradation ([2]; 1 M HCl solution, room temperature, 30 min): two major degradation products FD1 (tR=1.55 min) and FD2 (tR=1.80 min) | Forced degradation ([2]; 1 M NaOH solution, room temperature, 30 min): a major degradation product FD1 (tR=1.55 min) | Forced degradation ([2]; 3% H2O2 solution, room temperature, 30 min): a major degradation product FD1 (tR=1.55 min) having the same retention time as H2O2 | Forced degradation ([2]; heated in an oven at 80° C. for 30 min): little effect on the degradation
